{
  "source": "ChEMBL document CHEMBL4229451",
  "about": "“Recent advances in peptidomimetics antagonists targeting estrogen receptor α-coactivator interaction in cancer therapy” (Bioorg Med Chem Lett, 2018)",
  "key": {"[1]": {"test_system": "Estrogen receptor beta (Homo sapiens), Q92731 [C334S,C369S,C481S]", "sequence (Q92731 whole entry C334S/C369S/C481S, the tested form may be a part)": "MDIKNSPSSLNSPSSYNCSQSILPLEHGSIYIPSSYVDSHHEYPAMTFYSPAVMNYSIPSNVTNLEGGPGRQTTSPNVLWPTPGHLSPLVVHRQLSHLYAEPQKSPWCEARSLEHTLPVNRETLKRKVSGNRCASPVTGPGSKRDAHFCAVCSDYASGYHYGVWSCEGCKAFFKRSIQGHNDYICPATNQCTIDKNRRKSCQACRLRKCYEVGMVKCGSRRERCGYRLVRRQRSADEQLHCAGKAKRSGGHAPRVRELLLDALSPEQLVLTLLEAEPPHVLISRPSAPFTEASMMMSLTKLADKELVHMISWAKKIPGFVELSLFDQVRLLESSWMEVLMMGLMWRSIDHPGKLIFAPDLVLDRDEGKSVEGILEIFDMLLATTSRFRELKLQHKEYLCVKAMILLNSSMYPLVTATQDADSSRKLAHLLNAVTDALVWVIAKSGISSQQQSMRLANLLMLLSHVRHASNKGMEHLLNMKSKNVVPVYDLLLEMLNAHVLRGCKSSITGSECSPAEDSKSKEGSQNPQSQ", "assay": "(§1) Binding affinity to recombinant human ERbeta LBD (259 to 498 residues) C334S/C369S/C481S triple mutant expressed in Escherichia coli BL21(DE3) by surface plasmon resonance method"}, "[2]": {"target": "Estrogen receptor beta (Homo sapiens, UniProt Q92731, C334S/C369S/C481S)", "sequence (Q92731 whole entry C334S/C369S/C481S)": "as the sequence (Q92731 whole entry C334S/C369S/C481S, the tested form may be a part) above", "assay": "as §1"}, "[3]": {"target": "T1, Estrogen receptor (Homo sapiens, UniProt P03372)", "T1 sequence (P03372 whole entry)": "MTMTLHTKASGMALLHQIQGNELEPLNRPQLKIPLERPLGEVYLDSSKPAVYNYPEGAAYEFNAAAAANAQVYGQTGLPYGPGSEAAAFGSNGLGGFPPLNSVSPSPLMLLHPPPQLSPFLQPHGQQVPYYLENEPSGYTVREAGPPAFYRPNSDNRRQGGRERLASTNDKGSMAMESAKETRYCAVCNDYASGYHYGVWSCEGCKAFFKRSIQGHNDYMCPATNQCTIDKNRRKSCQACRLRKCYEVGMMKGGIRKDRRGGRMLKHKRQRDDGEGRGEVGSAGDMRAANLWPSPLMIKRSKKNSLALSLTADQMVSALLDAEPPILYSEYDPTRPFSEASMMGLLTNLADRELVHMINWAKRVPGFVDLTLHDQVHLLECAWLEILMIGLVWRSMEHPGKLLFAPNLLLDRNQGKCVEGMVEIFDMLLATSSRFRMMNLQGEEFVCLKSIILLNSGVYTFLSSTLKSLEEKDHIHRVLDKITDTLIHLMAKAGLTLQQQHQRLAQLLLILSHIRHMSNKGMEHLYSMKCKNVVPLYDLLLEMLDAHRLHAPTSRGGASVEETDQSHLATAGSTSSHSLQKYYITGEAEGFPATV", "assay": "Binding affinity to recombinant N-terminal His6-tagged ERalpha LBD (unknown origin) (299 to 554 residues) by surface plasmon resonance method"}, "[4]": {"target": "T2, Estrogen receptor (Homo sapiens) (UniProt P03372)", "T2 sequence (whole entry)": "T1 sequence (P03372 whole entry)", "assay": "(§2) Binding affinity to recombinant human ERalpha LBD (301 to 553 residues) expressed in Escherichia coli BL21(DE3) by surface plasmon resonance method"}, "[5]": {"target": "T1, Estrogen receptor", "assay": "as §2"}, "[6]": {"target": "T1, Estrogen receptor", "assay": "Antagonist activity at full length recombinant human ERalpha expressed in baculovirus expression system assessed as inhibition of estradiol-induced Euphorium-labelled LTERHKILHRLLQEGSPSD peptide recruitment after 1.5 hrs by time-resolved fluorescence assay"}, "[7]": {"target": "Estrogen receptor beta (Homo sapiens, UniProt Q92731)", "sequence (Q92731 whole entry)": "as the sequence (Q92731 whole entry C334S/C369S/C481S, the tested form may be a part) above, with S334C, S369C, S481C counted along it", "assay": "Antagonist activity at full length recombinant human ERbeta expressed in baculovirus expression system assessed as inhibition of estradiol-induced Euphorium-labelled QAQQKSLLQQLLTE peptide recruitment after 1.5 hrs by time-resolved fluorescence assay"}, "[8]": {"target": "T1, Estrogen receptor", "assay": "Displacement of 5-iodoacetamidofluorescein-labelled SRC3 from C417-biotin labelled ERalpha (unknown origin) (304 to 554 residues) after 45 mins by TR-FRET assay"}},
  "note": "Starred links: 1 amine or outer side, 2 acyl side, 3 side chain; linkers in the order of their positions; H or OH if unused. Positions of bridges follow the written chain, without caps; N, C: chain ends. Non-standard residues stand in square brackets, D forms with d. Residues, ends and D or L forms follow the SMILES beside them. αMeNle(4R-Me,6-ylidene) = C[C@H](CC=[*:3])C[C@](C)(N[*:1])C(=O)[*:2]; X3 = C[C@@H](CC=[*:3])C[C@](C)(N[*:1])C(=O)[*:2]; X2 = O=C([C@@H](CC[*:3])N[*:1])[*:2]; S5 = C=CCCC[C@](C)(N)C(=O)O",
  "data": [
    {"smiles": "CC[C@H](C)[C@H](NC(=O)[C@H](CCCCN)NC(=O)[C@H](Cc1cnc[nH]1)NC(C)=O)C(=O)N[C@@H](CC(C)C)C(=O)N[C@@H](Cc1cnc[nH]1)C(=O)N[C@@H](CCCNC(=N)N)C(=O)N[C@@H](CC(C)C)C(=O)N[C@@H](CC(C)C)C(=O)N[C@@H](CCC(N)=O)C(=O)N[C@@H](CC(=O)O)C(=O)N[C@@H](CO)C(N)=O", "note": "(Ac-HKILHRLLQDS-NH2)", "values": [
      {"measurement": "Kdiss", "setting": "[1]", "result": 0.376, "unit": "s⁻¹"},
      {"measurement": "Kd", "setting": "[2]", "result": 5000, "unit": "nM"},
      {"measurement": "Kd", "setting": "[3]", "result": 2600, "unit": "nM"},
      {"measurement": "Kdiss", "setting": "[4]", "result": 0.347, "unit": "s⁻¹"},
      {"measurement": "Kd", "setting": "[5]", "result": 2500, "unit": "nM"}
    ]},
    {"smiles": "CC[C@H](C)[C@@H]1NC(=O)[C@H](NC(=O)[C@@H](N)CCCNC(=N)N)CSSC[C@H](C(=O)N[C@@H](CCCNC(=N)N)C(=O)N[C@@H](CC(C)(C)C)C(=O)N[C@@H](CC(C)C)C(=O)N[C@@H](CCC(N)=O)C(N)=O)NC(=O)[C@H](CC(C)C)NC1=O", "values": [
      {"measurement": "Ki", "setting": "[6]", "result": 0.07, "unit": "nM"},
      {"measurement": "Ki", "setting": "[7]", "result": 1.2, "unit": "nM"}
    ]},
    {"smiles": "CC(=O)N[C@@H](CCCNC(=N)N)C(=O)N[C@@H](CCCNC(=N)N)C(=O)N[C@@H](CCCNC(=N)N)C(=O)N[C@@H](CCCNC(=N)N)C(=O)N[C@@H](CCCCN)C(=O)N[C@@]1(C)CCC/C=C\\CCC[C@@](C)(C(=O)N[C@@H](CC(C)C)C(=O)N[C@@H](CCC(N)=O)C(=O)N[C@@H](CC(=O)O)C(=O)N[C@@H](CO)C(N)=O)NC(=O)[C@H](CCCNC(=N)N)NC(=O)[C@H](Cc2cnc[nH]2)NC(=O)[C@H](CC(C)C)NC1=O", "note": "(Ac-RRRRK[S5]LHR[S5]LQDS-NH2; staple (Z) 6-10)", "values": [
      {"measurement": "Kd", "setting": "[3]", "result": 19, "unit": "nM"}
    ]},
    {"smiles": "CC(=O)N[C@@H](Cc1cnc[nH]1)C(=O)N[C@@H](CCCCN)C(=O)N[C@@]1(C)C[C@H](C)C/C=C\\CCC[C@@](C)(C(=O)N[C@@H](CC(C)C)C(=O)N[C@@H](CCC(N)=O)C(=O)N[C@@H](CC(=O)O)C(=O)N[C@@H](CO)C(N)=O)NC(=O)[C@H](CCCNC(=N)N)NC(=O)[C@H](Cc2cnc[nH]2)NC(=O)[C@H](CC(C)C)NC1=O", "note": "(Ac-HK[αMeNle(4R-Me,6-ylidene)]LHR[S5]LQDS-NH2; staple (Z) 3-7)", "values": [
      {"measurement": "IC50", "setting": "[8]", "result": 96, "unit": "nM"}
    ]},
    {"smiles": "CC[C@H](C)[C@@H]1NC(=O)[C@H](NC(=O)[C@@H](N)CCCNC(=N)N)CCSC[C@@H](C(=O)N[C@@H](CCCNC(=N)N)C(=O)N[C@@H](CC(C)C)C(=O)N[C@@H](CC(C)C)C(=O)N[C@@H](CCC(N)=O)C(N)=O)NC(=O)[C@H](CC(C)C)NC1=O", "note": "(H-R[X2]ILCRLLQ-NH2; thioether 2-5)", "values": [
      {"measurement": "Ki", "setting": "[6]", "result": 6.9, "unit": "nM"},
      {"measurement": "Ki", "setting": "[7]", "result": 64, "unit": "nM"}
    ]},
    {"smiles": "CC(=O)N[C@@H](Cc1cnc[nH]1)C(=O)N[C@@H](CCCCN)C(=O)N[C@@]1(C)CCC/C=C\\CCC[C@@](C)(C(=O)N[C@@H](CC(C)C)C(=O)N[C@@H](CCC(N)=O)C(=O)N[C@@H](CC(=O)O)C(=O)N[C@@H](CO)C(N)=O)NC(=O)[C@H](CCC(N)=O)NC(=O)[C@H](Cc2cnc[nH]2)NC(=O)[C@H](CC(C)C)NC1=O", "note": "(Ac-HK[S5]LHQ[S5]LQDS-NH2; staple (Z) 3-7)", "values": [
      {"measurement": "IC50", "setting": "[8]", "result": 760, "unit": "nM"},
      {"measurement": "Kdiss", "setting": "[1]", "result": 0.339, "unit": "s⁻¹"},
      {"measurement": "Kd", "setting": "[2]", "result": 632, "unit": "nM"},
      {"measurement": "Kdiss", "setting": "[4]", "result": 0.193, "unit": "s⁻¹"},
      {"measurement": "Kd", "setting": "[5]", "result": 352, "unit": "nM"}
    ]},
    {"smiles": "CC[C@H](C)[C@H](NC(=O)[C@H](CCCCN)NC(=O)[C@H](Cc1cnc[nH]1)NC(C)=O)C(=O)N[C@@H](CC(C)C)C(=O)N[C@@H](Cc1cnc[nH]1)C(=O)N[C@@]1(C)CCC/C=C\\CCC[C@@](C)(C(=O)N[C@@H](CO)C(N)=O)NC(=O)[C@H](CCC(N)=O)NC(=O)[C@H](CC(C)C)NC(=O)[C@H](CC(C)C)NC1=O", "note": "(Ac-HKILH[S5]LLQ[S5]S-NH2; staple (Z) 6-10)", "values": [
      {"measurement": "Kd", "setting": "[2]", "result": "> 15000", "unit": "nM"},
      {"measurement": "Kd", "setting": "[5]", "result": "> 15000", "unit": "nM"}
    ]},
    {"smiles": "C=CCCC[C@](C)(NC(=O)[C@H](CCCCN)NC(=O)[C@H](Cc1cnc[nH]1)NC(C)=O)C(=O)N[C@@H](CC(C)C)C(=O)N[C@@H](Cc1cnc[nH]1)C(=O)N[C@@H](CCC(N)=O)C(=O)N[C@@](C)(CCCC=C)C(=O)N[C@@H](CC(C)C)C(=O)N[C@@H](CCC(N)=O)C(=O)N[C@@H](CC(=O)O)C(=O)N[C@@H](CO)C(N)=O", "note": "(Ac-HK[S5]LHQ[S5]LQDS-NH2)", "values": [
      {"measurement": "IC50", "setting": "[8]", "result": 1200, "unit": "nM"}
    ]},
    {"smiles": "CC(=O)N[C@@H](Cc1cnc[nH]1)C(=O)N[C@@H](CCCCN)C(=O)N[C@@]1(C)C[C@@H](C)C/C=C\\CCC[C@@](C)(C(=O)N[C@@H](CC(C)C)C(=O)N[C@@H](CCC(N)=O)C(=O)N[C@@H](CC(=O)O)C(=O)N[C@@H](CO)C(N)=O)NC(=O)[C@H](CCCNC(=N)N)NC(=O)[C@H](Cc2cnc[nH]2)NC(=O)[C@H](CC(C)C)NC1=O", "note": "(Ac-HK[X3]LHR[S5]LQDS-NH2; staple (Z) 3-7)", "values": [
      {"measurement": "IC50", "setting": "[8]", "result": 89, "unit": "nM"}
    ]}
  ]
}
